According to patent US9549914B2, “Treatment of human cytomegalovirus by modulating Wnt” (priority 2014, dated 2017):

Tests used:
HSV2 clinical isolates = assay: HSV2 plaque assay in Vero cells; format: cell-based; details: Human alphaherpesvirus 2, 48 h; Vero cells, 200 PFU/well, plaques counted after 2 days; read-out: HSV2 EC50 (μM) Plaque Number (Vero)
HCMV [1] = assay: Reversibility of HCMV inhibition, real-time PCR in supernatants; format: cell-based, Human Cytomegalovirus (HCMV); details: treated 1, 2 or 3 days, then fresh media; HCMV DNA in supernatants at day 6 post infection
Description: FIG. 4: Effects of monensin, nigericin, salinomycin and GCV on replication characteristics. A. Reversibility of HCMV replication: Compounds were present in HCMV-infected HFFs at the indicated intervals in days. Virus DNA was quantified by real-time PCR in supernatants at 6 days post infection. Data represent mean values (±SD) of triplicate determinations from two independent experiments. B. Inhibition of DNA replication, pp28 expression and virus DNA yield: DNA replication was quantified by real-time PCR in cells collected 48 hpi. Pp28-luciferase activity was measured in cell lysates collected at 72 hpi. Virus DNA yield was measured by real-time PCR in supernatants of infected cells collected at 96 hpi. The concentration of compounds was: 0.1 μM for monensin and nigericin, 1 μM for salinomycin and 10 μM for GCV. Data represent mean values (±SD) of triplicate determinations from two independent experiments.
The quantitative CMV real-time PCR assay is based on detection of a 151 bp region from the highly conserved US17 gene (16). The limit of detection of the assay is 100 copies/mL (3.0 copies/reaction), and the measurable range is 2.4-8.0 log10 copies/mL. The PCR was performed using a total reaction volume of 50 μL, including TaqMan 2× Universal PCR Master Mix (Applied Biosystems, Foster City, Calif.), primers (300 nM final concentration), FAM-labeled probe (200 nM final concentration), dH2O, and template (10 μl). Amplification was performed on a 7500 Real-Time PCR System (Applied Biosystems, Foster City, Calif.). PCR conditions were: 50° C. for 2 min, 95° C. for 10 min, 40 cycles of 95° C. for 15 s and 60° C. for 60 s. Quantification standards were prepared by cloning the US17 amplicon in the pCR®2.1-TOPO® plasmid vector (Invitrogen, Carlsbad, Calif.). Serial 10-fold dilutions of plasmid from 7.0 to 1.0 log10 copies/reaction were included with each assay and used to establish a standard curve. The slope and R^2 of the standard curve were −3.3±0.1 and >0.990, respectively. Assay controls included quantified CMV AD 169 DNA (Advanced Biotechnologies Inc.) and quantified Towne CMV at 3.0 and 5.0 log10 copies/mL. Quantitative CMV data were expressed as viral DNA copies per milliliter. The real-time PCR was used for quantification of HCMV replication in cell lysates at 48 hpi, virus DNA yield in supernatants at 96 hpi and for a reversibility assay (14, 16).
To test whether HCMV inhibition by monensin, nigericin and salinomycin was reversible, infected HFFs were treated for 1, 2, or 3 days followed by removal of the media containing the compounds, and adding fresh media until 6 days post infection. HCMV DNA was quantified in supernatants of infected cells at day 6 post infection by real-time PCR.

HCMV [2] = assay: HCMV yield reduction (infectious virus released into medium, plaques); format: cell-based, Human Cytomegalovirus (HCMV); details: infected HFFs treated at 0.1 μM
[3] = test system: Wnt/β-catenin signaling proteins; assay: Western blot of Wnt-signaling proteins in non-infected and HCMV-infected HFFs; format: cell-based, Human; details: 100 nM
Protocol: FIG. 5: Effect of Nigericin and GCV on expression of HCMV and Wnt/β-catenin signaling proteins. A. Expression of HCMV proteins in infected HFFs treated with nigericin (100 nM) and GCV (10 μM). Compounds were added after virus adsorption and cell lysates were collected for western blot at 24, 48 and 72 hpi. Control-no treatment. B. Expression of Wnt-signaling proteins was determined in non-infected (Mock), and HCMV-infected HFFs treated with nigericin (100 nM) and GCV (10 μM) at indicated time points. Representative data from three independent experiments are shown.
(§1) Cell lysates were quantified for protein content using bicinchoninic acid (BCA) protein assay kit (Pierce Chemical, Rockford, Ill.). Equivalent amount of proteins were mixed with an equal volume of 2× sample buffer (125 mM Tris-HCL, pH 6.8, 4% SDS, 20% glycerol and 5% β-mercaptoethanol) and boiled at 100° C. for 10 min (except for Wnt and pWnt detection for which samples were not boiled). Denatured proteins were resolved in Tris-glycine polyacrylamide gels (10-12%) and transferred to polyvinylidine difluoride (PVDF) membranes (Bio-Rad Laboratories, Hercules, Calif.) by electroblotting. Membranes were incubated in blocking solution [5% non-fat dry milk and 0.1% Tween-20 in PBS (PBST)] for 1 hr, washed three times with PBST, and incubated with appropriately diluted primary antibodies at 4° C. overnight. Membranes were washed with PBST and incubated with horseradish peroxidase-conjugated secondary antibodies in PBST for 1 hr at room temperature. Following washing with PBST, protein bands were visualized by chemiluminescence using SuperSignal West Dura and Pico reagents (Pierce Chemical, Rockford, Ill.). The following antibodies were used for detection of CMV proteins: mouse anti-IE1 and IE2, (MAb810); mouse anti-beta-actin antibody (Millipore, Billerica, Mass.); mouse anti-UL44 (Santa Cruz biotechnology Santa Cruz, Calif.); mouse anti-pp65 (Vector laboratories, Burlingame, Calif.); horseradish peroxidase (HRP)-conjugated anti-rabbit IgG (Cell Signaling Technology, Beverly, Mass.); and HRP-conjugated anti-mouse IgG, (GE Healthcare, Waukesha, Wis.). The following antibodies were used for detection of proteins in the Wnt pathway: anti-Wnt5a/b, Wnt, phospho-Wnt, Dvl2, Dvl3 and axin1 (Cell Signaling), β-catenin (E-5) (Santa Cruz biotechnology).

[4] = test system: Wnt/β-catenin signaling proteins; assay: Western blot of Wnt/β-catenin signaling proteins in HSV1-infected HFFs; format: cell-based, Human; details: 48 hpi with HSV1-KOS (Dlux/OriS), concentrations resulting in full HCMV inhibition
Protocol: FIG. 7: Effect of monensin, nigericin and salinomycin on expression of Wnt/β-catenin signaling proteins in non-infected and HSV1-infected HFFs. FIG. 7A: Expression of Wnt5a/b, Axin1, β-catenin, and actin (control) in non-infected (Mock), and HSV1-infected HFFs (MOI=0.1) treated with monensin (0.1 μM), nigericin (0.1 μM), salinomycin (1 μM) and GCV (10 μM) was determined after 48 h. Representative data from three independent experiments is shown. FIG. 7B: Expression of Wnt5a/b, Axin1, β-catenin, and actin (control) in non-infected (Mock), and HSV1-infected HFFs (MOI=0.1) treated with monensin (0.2 μM), nigericin (0.2 μM) and salinomycin (2 μM) and GCV (10 μM) was determined after 48 h. Representative data from three independent experiments is shown.
as §1

[5] = non-infected and HCMV-infected HFFs, all time points (24, 48, 72 hpi)

CO[C@@H]1C[C@@H](C[C@H]2CC[C@H](C)[C@H]([C@@H](C)C(=O)O)O2)O[C@]2(O[C@](C)([C@H]3CC[C@@](C)([C@@H]4O[C@@H]([C@H]5O[C@@](O)(CO)[C@H](C)C[C@@H]5C)C[C@@H]4C)O3)C[C@H]2C)[C@@H]1C [Nigericin, nigericin]
EC50 (HSV2 clinical isolates): 0.16 ± 0.05 µM | reversibility of HCMV inhibition (HCMV [1]): weak irreversible inhibition | infectious virus released into the medium (yield reduction), plaques (HCMV [2]): complete absence of plaques | β-catenin levels ([3]; effect increased from 24 to 48 and 72 hpi): significant decrease | expression of Wnt [3, 5]: decreased expression | expression of Wnt 5a/b [3, 5]: decreased expression | expression of axin 1 [3, 5]: decreased expression | expression of pWnt [3, 5]: decreased expression | expression of Wnt 5a/b in HSV1-infected HFFs [4]: inhibition | expression of axin 1 in HSV1-infected HFFs [4]: did not reduce | expression of β-catenin in HSV1-infected HFFs [4]: did not reduce
